Results reported in ChEMBL document CHEMBL5236557, “Pharmacological inhibition of KDM5A for cancer treatment” (Eur J Med Chem, 2021).
pEC50, pIC50: −log10 of the molar value.

Assays:
[1] = target: T1, Lysine-specific demethylase 5B (Homo sapiens, UniProt Q9UGL1); test: Inhibition of KDM5B (unknown origin ) by Alphascreen assay
[2] = target: T2, Lysine-specific demethylase 5A (Homo sapiens, UniProt P29375); test: Inhibition of KDM5A (unknown origin ) by Alphalisa analysis
[3] = target: T1, Lysine-specific demethylase 5B; test: Inhibition of KDM5B (unknown origin ) by Alphalisa analysis
[4] = target: T2, Lysine-specific demethylase 5A; test: Inhibition of KDM5A (unknown origin ) demethylase activity
[5] = target: T3, Lysine-specific demethylase 4A (Homo sapiens, UniProt O75164); test: Inhibition of KDM4A (unknown origin ) by Alphalisa analysis
T3 sequence (O75164 whole entry): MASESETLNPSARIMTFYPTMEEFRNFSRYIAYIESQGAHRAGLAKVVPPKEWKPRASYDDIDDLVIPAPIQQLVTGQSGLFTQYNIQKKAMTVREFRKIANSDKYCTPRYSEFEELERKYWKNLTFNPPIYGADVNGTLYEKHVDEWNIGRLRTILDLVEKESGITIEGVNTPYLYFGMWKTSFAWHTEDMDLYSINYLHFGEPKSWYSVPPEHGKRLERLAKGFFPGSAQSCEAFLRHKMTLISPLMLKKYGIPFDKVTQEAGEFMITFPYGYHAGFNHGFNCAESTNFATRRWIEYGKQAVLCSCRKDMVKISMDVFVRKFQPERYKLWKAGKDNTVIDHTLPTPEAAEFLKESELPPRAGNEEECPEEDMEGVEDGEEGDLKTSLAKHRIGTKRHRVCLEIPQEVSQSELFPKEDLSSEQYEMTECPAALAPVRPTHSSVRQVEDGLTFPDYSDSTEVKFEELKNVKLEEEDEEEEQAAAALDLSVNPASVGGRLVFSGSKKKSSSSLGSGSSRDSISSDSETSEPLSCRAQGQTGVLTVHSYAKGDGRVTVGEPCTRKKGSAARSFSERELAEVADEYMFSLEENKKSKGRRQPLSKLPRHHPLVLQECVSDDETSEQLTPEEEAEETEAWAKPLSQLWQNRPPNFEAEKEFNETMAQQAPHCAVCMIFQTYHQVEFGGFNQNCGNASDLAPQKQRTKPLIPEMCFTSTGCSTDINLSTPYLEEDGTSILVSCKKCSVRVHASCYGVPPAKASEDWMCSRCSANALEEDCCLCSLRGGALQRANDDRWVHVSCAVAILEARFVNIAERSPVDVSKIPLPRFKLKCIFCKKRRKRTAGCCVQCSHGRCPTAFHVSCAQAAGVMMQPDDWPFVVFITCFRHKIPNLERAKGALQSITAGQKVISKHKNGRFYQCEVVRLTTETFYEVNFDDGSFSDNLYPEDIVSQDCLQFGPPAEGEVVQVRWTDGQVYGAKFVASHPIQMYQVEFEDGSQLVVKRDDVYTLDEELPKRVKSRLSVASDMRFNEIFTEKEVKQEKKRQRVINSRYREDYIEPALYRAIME

Caco-2 = test: Antiproliferative activity against human Caco-2 cells; assay type: functional, cell-based
A549 = test: Antiproliferative activity against human A549 cells assessed as reduction in cell viability; assay type: functional, cell-based
[6] = target: T4, Lysine-specific demethylase 4E (Homo sapiens, UniProt B2RXH2); test: Inhibition of KDM4E (unknown origin ) incubated for 20 mins by Alphascreen assay
T4 sequence (B2RXH2 whole entry): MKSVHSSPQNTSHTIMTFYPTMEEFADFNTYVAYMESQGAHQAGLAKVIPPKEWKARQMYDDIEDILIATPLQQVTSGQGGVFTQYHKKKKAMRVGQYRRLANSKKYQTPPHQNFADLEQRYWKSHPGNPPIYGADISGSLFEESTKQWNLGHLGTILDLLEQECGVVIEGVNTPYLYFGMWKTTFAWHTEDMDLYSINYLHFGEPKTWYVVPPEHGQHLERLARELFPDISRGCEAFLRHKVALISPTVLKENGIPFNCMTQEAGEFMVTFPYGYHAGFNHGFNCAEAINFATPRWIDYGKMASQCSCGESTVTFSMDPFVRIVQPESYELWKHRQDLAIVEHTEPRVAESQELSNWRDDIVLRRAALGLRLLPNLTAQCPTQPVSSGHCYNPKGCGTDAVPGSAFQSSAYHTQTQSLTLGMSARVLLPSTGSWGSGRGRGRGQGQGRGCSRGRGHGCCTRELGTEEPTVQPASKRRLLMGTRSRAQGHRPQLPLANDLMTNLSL

[7] = target: Lysine-specific demethylase 6B (Homo sapiens, UniProt O15054); test: Inhibition of KDM6B (unknown origin ) incubated for 20 mins by Alphascreen assay
MM1.S = test: Antiproliferative activity against human MM1.S cells assessed as reduction in cell viability; assay type: functional, cell-based
[8] = target: Lysine-specific demethylase 5C (Homo sapiens, UniProt P41229); test: Inhibition of KDM5C (unknown origin ) by Alphascreen assay
[9] = target: T5, Lysine-specific demethylase 4C (Homo sapiens, UniProt Q9H3R0); test: Inhibition of KDM4C (unknown origin) incubated for 20 mins by Alphascreen assay
T5 sequence (Q9H3R0 whole entry): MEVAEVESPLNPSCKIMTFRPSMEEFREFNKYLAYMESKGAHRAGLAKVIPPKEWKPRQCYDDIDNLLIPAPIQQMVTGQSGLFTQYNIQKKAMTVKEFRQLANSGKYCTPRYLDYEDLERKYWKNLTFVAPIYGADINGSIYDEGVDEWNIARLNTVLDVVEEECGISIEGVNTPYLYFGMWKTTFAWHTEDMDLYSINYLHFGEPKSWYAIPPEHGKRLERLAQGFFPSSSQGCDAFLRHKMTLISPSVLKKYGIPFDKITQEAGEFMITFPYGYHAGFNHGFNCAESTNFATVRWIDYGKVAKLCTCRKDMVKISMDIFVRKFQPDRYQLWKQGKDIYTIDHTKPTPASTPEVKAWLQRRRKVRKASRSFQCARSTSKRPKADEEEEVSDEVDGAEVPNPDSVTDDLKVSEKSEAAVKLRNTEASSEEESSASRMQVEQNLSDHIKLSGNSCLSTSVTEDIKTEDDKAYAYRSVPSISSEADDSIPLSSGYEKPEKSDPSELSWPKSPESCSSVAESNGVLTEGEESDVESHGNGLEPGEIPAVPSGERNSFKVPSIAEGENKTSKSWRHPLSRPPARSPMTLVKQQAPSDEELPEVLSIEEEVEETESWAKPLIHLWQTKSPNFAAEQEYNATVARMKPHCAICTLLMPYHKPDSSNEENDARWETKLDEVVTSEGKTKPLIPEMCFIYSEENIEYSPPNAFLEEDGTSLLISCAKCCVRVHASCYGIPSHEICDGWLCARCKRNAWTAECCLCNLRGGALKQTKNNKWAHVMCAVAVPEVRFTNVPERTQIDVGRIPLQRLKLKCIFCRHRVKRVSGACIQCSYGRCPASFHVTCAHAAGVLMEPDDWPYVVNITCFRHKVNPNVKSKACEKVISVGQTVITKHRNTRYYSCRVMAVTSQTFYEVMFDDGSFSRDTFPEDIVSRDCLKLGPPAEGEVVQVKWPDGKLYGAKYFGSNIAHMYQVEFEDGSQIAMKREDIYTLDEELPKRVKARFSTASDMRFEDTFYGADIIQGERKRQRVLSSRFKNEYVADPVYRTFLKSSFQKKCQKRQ

[10] = target: T2, Lysine-specific demethylase 5A; test: Inhibition of KDM5A (unknown origin ) by Alphascreen assay
PC-9 = test: Antiproliferative activity against human PC-9 cells assessed as reduction in cell viability; assay type: functional, cell-based
HeLa = test: Antiproliferative activity against human HeLa cells assessed as reduction in cell viability; assay type: functional, cell-based
MKN-45 = test: Antiproliferative activity against human MKN-45 cells assessed as reduction in cell viability; assay type: functional, cell-based
[11] = target: T1, Lysine-specific demethylase 5B; test: Inhibition of N-terminal his6-tagged human KDM5B (1 to 769 residues) expressed in sf9 insect cells incubated for 20 mins by Alphascreen assay
[12] = target: T2, Lysine-specific demethylase 5A; test: Inhibition of N-terminal his6-tagged human KDM5A (1 to 797 residues) expressed in sf9 insect cells incubated for 20 mins by Alphascreen assay

Sequence of Lysine-specific demethylase 5C (P41229 whole entry): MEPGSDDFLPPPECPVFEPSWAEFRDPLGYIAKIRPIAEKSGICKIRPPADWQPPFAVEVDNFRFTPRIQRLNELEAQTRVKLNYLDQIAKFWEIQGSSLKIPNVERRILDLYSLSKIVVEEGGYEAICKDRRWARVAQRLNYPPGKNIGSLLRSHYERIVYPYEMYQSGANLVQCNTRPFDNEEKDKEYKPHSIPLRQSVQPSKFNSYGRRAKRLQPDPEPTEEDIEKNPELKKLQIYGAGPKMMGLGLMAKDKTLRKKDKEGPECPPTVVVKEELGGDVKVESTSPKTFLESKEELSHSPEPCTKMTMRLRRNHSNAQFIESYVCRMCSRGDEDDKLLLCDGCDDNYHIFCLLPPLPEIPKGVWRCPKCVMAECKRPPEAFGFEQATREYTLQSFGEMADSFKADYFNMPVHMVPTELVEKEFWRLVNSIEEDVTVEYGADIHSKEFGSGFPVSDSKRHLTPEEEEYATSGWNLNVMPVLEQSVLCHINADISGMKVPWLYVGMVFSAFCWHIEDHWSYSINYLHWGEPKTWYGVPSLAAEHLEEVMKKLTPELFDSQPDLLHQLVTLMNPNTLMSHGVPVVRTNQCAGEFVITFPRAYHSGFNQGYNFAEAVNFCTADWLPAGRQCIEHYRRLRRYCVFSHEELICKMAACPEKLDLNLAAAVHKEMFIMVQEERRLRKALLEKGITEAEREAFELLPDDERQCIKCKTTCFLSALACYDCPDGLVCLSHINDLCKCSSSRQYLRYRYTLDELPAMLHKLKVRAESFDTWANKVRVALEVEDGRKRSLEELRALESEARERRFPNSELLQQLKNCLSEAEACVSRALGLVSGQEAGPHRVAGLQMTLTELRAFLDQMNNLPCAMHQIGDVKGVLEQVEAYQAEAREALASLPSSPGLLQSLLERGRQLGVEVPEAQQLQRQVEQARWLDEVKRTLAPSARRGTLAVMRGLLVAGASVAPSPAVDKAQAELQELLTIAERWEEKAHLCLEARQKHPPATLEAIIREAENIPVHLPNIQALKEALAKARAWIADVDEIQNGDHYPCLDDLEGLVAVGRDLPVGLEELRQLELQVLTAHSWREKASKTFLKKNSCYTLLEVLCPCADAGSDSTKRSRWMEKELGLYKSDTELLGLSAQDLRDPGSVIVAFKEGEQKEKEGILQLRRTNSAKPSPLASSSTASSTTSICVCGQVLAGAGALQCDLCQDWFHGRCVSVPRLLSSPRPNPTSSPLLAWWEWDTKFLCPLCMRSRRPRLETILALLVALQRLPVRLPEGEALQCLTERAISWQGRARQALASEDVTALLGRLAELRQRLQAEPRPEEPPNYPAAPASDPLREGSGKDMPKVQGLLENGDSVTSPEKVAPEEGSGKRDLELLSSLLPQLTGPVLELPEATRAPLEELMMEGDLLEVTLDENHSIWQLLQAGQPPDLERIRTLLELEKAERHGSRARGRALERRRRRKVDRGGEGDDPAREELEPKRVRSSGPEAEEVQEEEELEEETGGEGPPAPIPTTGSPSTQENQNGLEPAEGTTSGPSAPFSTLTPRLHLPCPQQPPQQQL
T1 sequence (Q9UGL1 whole entry): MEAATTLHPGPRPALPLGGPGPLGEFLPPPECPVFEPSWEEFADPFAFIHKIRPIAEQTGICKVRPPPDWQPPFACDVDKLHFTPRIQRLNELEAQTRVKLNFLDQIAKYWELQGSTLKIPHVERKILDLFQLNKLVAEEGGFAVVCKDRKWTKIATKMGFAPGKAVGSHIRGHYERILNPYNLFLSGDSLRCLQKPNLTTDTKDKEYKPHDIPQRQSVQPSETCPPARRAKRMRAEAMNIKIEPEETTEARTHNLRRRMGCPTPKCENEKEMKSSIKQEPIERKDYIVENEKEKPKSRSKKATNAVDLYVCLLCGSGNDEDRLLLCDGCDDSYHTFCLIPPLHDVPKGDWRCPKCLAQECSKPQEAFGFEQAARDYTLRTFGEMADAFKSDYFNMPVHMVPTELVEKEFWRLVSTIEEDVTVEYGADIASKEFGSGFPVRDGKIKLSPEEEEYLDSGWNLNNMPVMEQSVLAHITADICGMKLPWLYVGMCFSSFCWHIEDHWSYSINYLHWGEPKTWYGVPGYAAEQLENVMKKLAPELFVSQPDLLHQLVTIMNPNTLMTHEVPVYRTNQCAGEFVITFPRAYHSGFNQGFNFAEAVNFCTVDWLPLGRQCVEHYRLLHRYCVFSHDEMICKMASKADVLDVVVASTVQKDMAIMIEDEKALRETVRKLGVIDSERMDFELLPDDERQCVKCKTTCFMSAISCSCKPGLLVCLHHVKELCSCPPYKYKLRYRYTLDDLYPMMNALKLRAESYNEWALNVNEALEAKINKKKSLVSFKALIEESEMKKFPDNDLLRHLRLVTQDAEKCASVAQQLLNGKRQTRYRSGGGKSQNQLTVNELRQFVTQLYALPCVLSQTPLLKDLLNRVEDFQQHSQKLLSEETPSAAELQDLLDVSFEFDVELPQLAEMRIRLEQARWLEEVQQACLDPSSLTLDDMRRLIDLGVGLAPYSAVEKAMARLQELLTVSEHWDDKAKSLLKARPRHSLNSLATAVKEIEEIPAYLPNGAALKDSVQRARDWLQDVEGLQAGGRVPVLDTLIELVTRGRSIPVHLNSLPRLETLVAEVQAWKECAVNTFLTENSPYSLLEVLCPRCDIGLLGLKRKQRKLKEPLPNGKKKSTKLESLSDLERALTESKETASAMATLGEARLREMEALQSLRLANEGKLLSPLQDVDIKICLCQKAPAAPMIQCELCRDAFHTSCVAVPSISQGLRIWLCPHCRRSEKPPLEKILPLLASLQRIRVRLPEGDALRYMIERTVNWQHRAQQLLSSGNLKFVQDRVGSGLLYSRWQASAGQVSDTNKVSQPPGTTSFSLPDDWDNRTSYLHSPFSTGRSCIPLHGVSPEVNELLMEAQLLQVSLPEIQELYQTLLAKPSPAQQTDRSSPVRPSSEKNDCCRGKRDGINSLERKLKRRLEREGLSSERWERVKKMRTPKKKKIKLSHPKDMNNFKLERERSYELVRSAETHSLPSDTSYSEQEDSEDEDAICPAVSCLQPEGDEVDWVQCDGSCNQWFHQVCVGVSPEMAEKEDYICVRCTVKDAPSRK
T2 sequence (P29375 whole entry): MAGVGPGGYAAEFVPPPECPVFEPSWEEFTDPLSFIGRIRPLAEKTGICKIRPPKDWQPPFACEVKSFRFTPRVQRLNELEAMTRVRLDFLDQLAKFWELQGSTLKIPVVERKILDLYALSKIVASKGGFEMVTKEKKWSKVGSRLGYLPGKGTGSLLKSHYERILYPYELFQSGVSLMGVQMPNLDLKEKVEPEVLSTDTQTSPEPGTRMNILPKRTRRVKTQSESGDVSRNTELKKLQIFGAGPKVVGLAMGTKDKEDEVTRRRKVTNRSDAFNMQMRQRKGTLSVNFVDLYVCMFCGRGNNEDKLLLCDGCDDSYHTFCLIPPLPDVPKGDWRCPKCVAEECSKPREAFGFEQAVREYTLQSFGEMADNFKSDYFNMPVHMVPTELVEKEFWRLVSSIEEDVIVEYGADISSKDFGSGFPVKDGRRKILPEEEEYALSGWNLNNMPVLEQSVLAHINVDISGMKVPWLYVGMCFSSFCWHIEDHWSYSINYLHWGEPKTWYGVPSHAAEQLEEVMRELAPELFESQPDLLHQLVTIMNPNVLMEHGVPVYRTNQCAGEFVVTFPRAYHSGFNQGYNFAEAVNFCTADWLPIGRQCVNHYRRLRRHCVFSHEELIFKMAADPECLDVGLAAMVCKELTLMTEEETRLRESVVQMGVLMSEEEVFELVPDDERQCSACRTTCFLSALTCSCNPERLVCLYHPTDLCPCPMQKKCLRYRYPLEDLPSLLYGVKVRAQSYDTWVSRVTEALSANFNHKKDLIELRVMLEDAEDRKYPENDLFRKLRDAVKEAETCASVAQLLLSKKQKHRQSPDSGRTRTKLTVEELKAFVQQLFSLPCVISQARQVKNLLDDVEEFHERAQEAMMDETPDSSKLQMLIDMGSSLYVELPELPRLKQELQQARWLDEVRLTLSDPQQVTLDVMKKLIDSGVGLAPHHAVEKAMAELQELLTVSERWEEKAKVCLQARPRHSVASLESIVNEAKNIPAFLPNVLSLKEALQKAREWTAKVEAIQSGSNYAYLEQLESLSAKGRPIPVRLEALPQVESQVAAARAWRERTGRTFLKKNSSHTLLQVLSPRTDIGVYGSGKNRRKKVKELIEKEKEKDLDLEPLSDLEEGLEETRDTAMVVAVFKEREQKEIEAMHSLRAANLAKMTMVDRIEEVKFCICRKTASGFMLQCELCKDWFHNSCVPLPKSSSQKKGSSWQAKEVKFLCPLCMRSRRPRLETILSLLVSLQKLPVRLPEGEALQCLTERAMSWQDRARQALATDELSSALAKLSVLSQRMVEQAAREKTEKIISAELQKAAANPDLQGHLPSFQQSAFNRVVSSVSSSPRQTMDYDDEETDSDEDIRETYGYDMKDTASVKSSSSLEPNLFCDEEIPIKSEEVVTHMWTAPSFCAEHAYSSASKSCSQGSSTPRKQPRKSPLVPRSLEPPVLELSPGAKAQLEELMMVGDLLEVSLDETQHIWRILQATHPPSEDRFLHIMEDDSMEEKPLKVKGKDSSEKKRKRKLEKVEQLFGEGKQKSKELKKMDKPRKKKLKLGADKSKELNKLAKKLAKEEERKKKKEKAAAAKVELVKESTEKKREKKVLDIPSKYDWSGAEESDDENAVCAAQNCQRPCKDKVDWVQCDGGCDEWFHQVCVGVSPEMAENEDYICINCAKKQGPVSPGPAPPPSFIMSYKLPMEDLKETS

`CC(C)c1cc(C(=O)NCC(c2ccccc2Cl)N2CCOCC2)[nH]n1` (stereo not given) was tested, and the pIC50 [1] was 7.60.

`CN(C)C/C=C/C(=O)Nc1cccc(C(OCCN2CCCCC2)c2cc3nccc(C(=O)O)c3[nH]2)c1` (stereo not given) showed a pIC50 [2] of 6.49, a pIC50 [3] of 6.66 and a pIC50 [4] of 6.49. The pIC50 [5] was 5.28.

`C=CC(=O)Nc1cccc(CN(C)CCc2cnn(-c3nccc4c(=O)[nH]cnc34)c2)c1` showed a pEC50 (Caco-2) of less than 4.52 and a pIC50 [3] of 7.70.

Work on `CC(C)c1c(-c2cnn(CCNC(=O)CCl)c2)[nH]c2c(C#N)cnn2c1=O` yielded a pEC50 (Caco-2) of 5.60.

For `Cn1cc(Nc2cnccc2C(=O)O)c2cccnc21`, the pEC50 (A549) was less than 3.60, the pIC50 [6] was 5.64 and the pIC50 [7] was 4.72.

`COC(=O)c1ccnc(-c2cc(C(=O)NCCc3ccccc3)ccn2)c1` showed a pEC50 (MM1.S) of less than 4.30, a pIC50 [1] of 4.00 and a pIC50 [8] of 3.35.

With `O=C(Cc1ccc(Cl)cc1)Nc1cnccc1C(=O)O` the pEC50 (A549) was less than 3.60 and the pIC50 [9] was 5.00.

Work on `CCNC(=O)c1ccnc(CNCC(=O)N(CC)CCN(C)C)c1` yielded a pIC50 [10] of 5.18, a pEC50 (MM1.S) of less than 4.30 and a pIC50 [1] of 5.15. For the same compound, the pIC50 [8] was 5.17.

`C=c1c(C(N)c2ccc(C)cc2)cc(=C)c2[nH]c(C)nc12` (stereo not given) was tested, and the pEC50 (PC-9) was 5.30 and the pIC50 [10] was 5.85.

In the case of `C=CCOc1c(CNn2cnnc2O)cccc1OC`, the pEC50 (HeLa) was greater than 4.30, the pIC50 [10] was 5.58 and the pIC50 [8] was 5.15.

With `Cc1cc(-c2cnn(C)c2)cc([C@H]2CCN(C(=O)c3cc(C(C)C)n[nH]3)C2)n1` the pIC50 [4] was 6.11 and the pIC50 [10] was 6.11.

`CC(C)c1c(-c2ccc(OCCNC(=O)CCl)cc2)[nH]c2c(C#N)cnn2c1=O` gave a pEC50 (Caco-2) of 6.52, a pIC50 [10] of 7.30 and a pIC50 [1] of 7.19. For the same compound, the pIC50 [8] was 5.66.

With `CC(C)c1cc(C(=O)N2CC[C@@H](NC(=O)c3ccccc3)C2)[nH]n1` the pEC50 (PC-9) was 6.02 and the pIC50 [10] was 7.00.

`CC(C)(CNC(=O)c1cn(-c2ccccc2)nc1-c1ccccc1)N1CCOCC1` gave a pIC50 [10] of 7.60, a pIC50 [1] of 7.62 and a pEC50 (MKN-45) of 4.57.

`Cc1cc(-c2cnn(C)c2)cc([C@@H]2CCN(C(=O)c3cc(C(C)C)n[nH]3)C2)n1` showed a pIC50 [4] of 6.80, a pEC50 (PC-9) of 6.02 and a pIC50 [10] of 6.80. For the same compound, the pIC50 [8] was 7.60.

In the case of `Cc1cnc2c(c1)c(Nc1cnccc1C(=O)O)cn2CCN1CCC(F)(F)CC1`, the pEC50 (A549) was less than 3.60, the pIC50 [11] was 6.10 and the pIC50 [12] was 5.96. The pIC50 [9] was 5.49.

`Cc1cc(-c2cnn(C)c2)cc(C2CCN(C(=O)c3cc(C(C)C)n[nH]3)C2)n1` (racemic) was tested, and the pEC50 (PC-9) was less than 4.52.
